Laboratory results taken from publication PMC7151106 (Pharmaceutics, 2020).
Like-named read-outs stand apart in the source and are kept apart here.

Tests used:
[1] = biological target: T1, SGLT2 (Homo sapiens, UniProt P31639); assay: Recovery of SGLT2 activity after washout following 24 h exposure in CHO-SGLT2 cells; type: cell-based
T1 construct: host or cells: CHO
T1 sequence (P31639 1-672): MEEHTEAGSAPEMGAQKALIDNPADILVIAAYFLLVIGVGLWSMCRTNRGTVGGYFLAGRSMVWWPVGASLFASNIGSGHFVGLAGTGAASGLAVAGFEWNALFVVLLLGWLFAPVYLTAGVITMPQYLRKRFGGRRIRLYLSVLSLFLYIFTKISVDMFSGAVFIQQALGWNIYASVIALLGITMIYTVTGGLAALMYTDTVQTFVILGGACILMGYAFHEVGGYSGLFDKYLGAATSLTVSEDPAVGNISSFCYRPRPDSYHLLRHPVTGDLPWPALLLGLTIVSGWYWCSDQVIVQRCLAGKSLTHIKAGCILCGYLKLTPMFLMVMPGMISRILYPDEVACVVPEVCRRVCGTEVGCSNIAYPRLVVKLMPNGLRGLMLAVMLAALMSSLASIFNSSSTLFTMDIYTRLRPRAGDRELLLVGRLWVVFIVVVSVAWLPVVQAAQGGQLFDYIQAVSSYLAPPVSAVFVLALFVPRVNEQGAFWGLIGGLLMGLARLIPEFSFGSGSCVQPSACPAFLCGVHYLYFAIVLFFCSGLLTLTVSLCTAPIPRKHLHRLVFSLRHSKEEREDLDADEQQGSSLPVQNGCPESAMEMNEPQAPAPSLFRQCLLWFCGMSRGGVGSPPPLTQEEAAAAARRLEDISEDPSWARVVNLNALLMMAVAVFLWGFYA
Procedure: After 24 h, the RPMI1640 medium was replaced with pre-warmed fresh RPMI1640 medium and incubated for 1, 2, 3, 5, and 6 h, and proceeded another pre-incubation with Na^+-free buffer for 1 h. Then, after replacing Na^+-free buffer with Na^+ gradient buffer containing 10 µM [^14C]AMG, the uptake of [^14C]AMG into the CHO-SGLT2 cells was measured for 2 h. After 2 h of incubation, the radioactivity of the cell lysate was measured following the same sample preparation method described above.

[2] = biological target: T1, SGLT2; assay: Time dependency of SGLT2 inhibition (preincubation) in CHO-SGLT2 cells; type: cell-based; conditions: for IC50: 10 μM [14C]AMG, 2 h, CHO-SGLT2; for Time dependency of SGLT2 inhibition: pretreatment 0, 1, 2 h
Procedure: After 2 h of incubation, the radioactivity of the cell lysate was measured following the same sample preparation method described above.

[3] = test system: T2, OAT1; assay: Substrate specificity / uptake in HEK293-OAT1 cells; type: in vitro ADME; conditions: for Substrate for OAT1: HEK293-OAT1 vs mock, ± 20 μM probenecid
T2 construct: host or cells: HEK293
Procedure: HEK293-mock cells and HEK293 cells overexpressing OAT1 and OAT3 transporters (HEK293-OAT1 and -OAT3, respectively) were seeded in poly-D-lysine-coated 24-well plates at a density of 4 × 10^5 cells/well and cultured for 24 h in DMEM supplemented with 10% FBS and 5 mM non-essential amino acids at 37 °C in 8% CO2 condition.
For each experiment, the growth medium was discarded after 24 h, and the attached cells were washed with pre-warmed HBSS and incubated with pre-warmed HBSS for 20 min at 37 °C. To confirm the functionality of OAT1 and OAT3, we measured the uptake of 0.1 µM [^3H]PAH and 0.1 µM [^3H]ES, representative substrates for OAT1 and OAT3, respectively, into in the HEK293-mock cells and HEK293-OAT1 and -OAT3 cells, respectively, for 5 min in the presence and absence of 20 µM probenecid, a typical inhibitor for both OAT1 and OAT3 [8, 9]. The cells were then washed three times with 500 μL of ice-cold HBSS immediately after placing the plates on ice. Subsequently, cells were lysed with 10% sodium dodecyl sulfate and mixed with Optiphase cocktail solution overnight. The radioactivity of the cell lysate was measured using a liquid scintillation counter (Microbeta 2; Perkin Elmer Inc., Boston, MA, USA).
For the concentration dependency in the uptake of DWP16001, the uptake of DWP16001 in a concentration range of 0.5–50 μM dissolved in HBSS was measured for 5 min at 37 °C in the mock cells and HEK293-OAT1 and -OAT3 cells, respectively. After 5 min, the cells were washed three times with 500 μL of ice-cold HBSS immediately after placing the plates on ice.
In the concentration-dependent uptake studies, the transporter-mediated uptake of DWP16001 was calculated by the subtraction of the transport rates of DWP16001 into the mock cells from those of the HEK293-OAT1 and -OAT3 cells. Kinetic parameters for the OAT1- and OAT3-mediated transport of DWP16001 were determined using the Michaelis-Menten equation [V = Vmax⋅S/(Km + S)] [10].

[4] = without preincubation, read-out: IC50 (0 h)
[5] = HEK293-OAT1 minus mock, 0.5–50 μM, 5 min

| Compound | Time after drug removal at which SGLT2 activity had not recovered ([1]; 200 nM) [h] | IC50 ([2]; IC50 (1 h), preincubation 1 h) [nM] | IC50 ([2]; IC50 (2 h), preincubation 2 h) [nM] | Time dependency of SGLT2 inhibition [2] | IC50 [2, 4] [nM] | Increase of uptake in HEK293-OAT1 cells compared with mock cells ([3]; 2 μM, 5 min) | Substrate for OAT1 ([3]; 2 μM, 5 min) | OAT1-mediated uptake: CLint [3, 5] [µL/min] | OAT1-mediated uptake: Vmax [3, 5] [pmol/min] | Km at 5 min ([3]; human, HEK293-OAT1 minus mock, 0.5–50 μM, read-out: OAT1-mediated uptake: Km) [µM] | Time after drug removal to recovery of SGLT2 activity to the control level ([1]; 0.2–200 nM) [h] |
| --- | --- | --- | --- | --- | --- | --- | --- | --- | --- | --- | --- |
| OC[C@H]1O[C@@H](c2cc(Cc3ccc(C4CC4)cc3)c(Cl)c3c2CCO3)[C@H](O)[C@@H](O)[C@@H]1O [DWP16001] | 8 | 0.7 | 0.8 | time-independent | 0.7 | two-fold | a substrate | 3.1 | 119.2 | 38 |  |
| OC[C@H]1O[C@@H](c2ccc(F)c(Cc3cc4ccccc4s3)c2)[C@H](O)[C@@H](O)[C@@H]1O [Ipragliflozin, ipragliflozin] |  | 11 | 9.9 | time-independent | 10.6 |  | not substrates |  |  |  | 4 |
